Laboratory results reported in patent publication US6685960B1, “Solid lipidic nanospheres suitable to a fast internalization into cells” (priority 1998, dated 2004).

Key:
[1] = test system: cells of the mastocarcinoma, MCF7; test: Inhibition of cell proliferation, MCF7 cells counted by Cell Counter; type: cell-based; conditions: Homo sapiens, MCF7, 144 h, read-out: inhibition of the cell growth
Method: The above described experiment has been repeated on cells of the mastocarcinoma, identified with the MCF7 abbreviation, using as insemination medium DMEM/F12 (Dulbecco's modified Eagle's medium, Sigma Chemical Co., St. Louis, Mo.) with 2% FCS.
Said cells have been placed in 12 well plates, where they have been left to adhere for 24 hours in the above described nutrition medium.
The nutrient medium has been then removed and substituted with the experimental medium consisting of DMEM/F12 with 10% FCS added with increasing concentrations of sodium butyrate, or of cholesteryl butyrate in form of nanospheres prepared according to the above reported example 2. The cells have been kept for 6 days in contact with such experimental medium.
The antiproliferative effect of the cholesteryl butyrate nanospheres on the cell growth has been estimated counting the cells with a Cell Counter.

[2] = test system: NIH-H460 cells of lung carcinoma; test: Inhibition of cell proliferation, NIH-H460 cells counted by Cell Counter; type: cell-based
Method: The experimentation has been carried out on NIH-H460 cells of lung carcinoma (D. N. Carney et al., Cancer Res., 45, 2913-2923, 1985) grown in monolayer in the RPMI 1640 nutrient medium (Bio Whittaker, Verviers, Belgium) added with 10% by volume with respect to the total volume of FCS (Fetal Calf Serum), at the temperature of 37° C., in a CO2 atmosphere humidified at 5%.
The cells have been put in 24 wells plates, using as nutrient medium RPMI 1640 added with 10% of FCS, and left to adhere for 24 hours. The insemination medium has been then removed and substituted with the experimental medium consisting of RPMI 1640 with 10% of FCS and increasing concentrations of sodium butyrate, or of cholesteryl butyrate in form of nanospheres prepared as in the above reported example 1. The cells have been kept for 6 days in contact with such experimental medium.
The effect of the sodium butyrate and of cholesteryl butyrate on the cell growth has been estimated counting the cells by a Cell Counter.

Row | SMILES | inhibition at 200 µM [1] [%] | inhibition at 210 µM ([2]; NIH-H460, 144 h, read-out: inhibition of the cell growth) [%] | effect on the cell proliferation ([2]; comparison test, additive of the experimental medium RPMI 1640 with 10% FCS)
1 | CCCC(=O)[O-].[Na+] [sodium butyrate] | 40 | 50 | 
2 | CC(C)CCC[C@@H](C)[C@H]1CC[C@H]2[C@@H]3CC=C4C[C@@H](O)CC[C@]4(C)[C@H]3CC[C@]12C [cholesterol] |  |  | does not affect the cell proliferation in any way
